Patent publication US7232842B2, “Kinase inhibitors and associated pharmaceutical compositions and methods of use” (Board of Trustees of the LeLand Stanford Junior University, priority 2003, dated 2007)

Experiments:
[1] = tested on: Protein kinase C, as a mixture of isozymes; experiment: PKC activity assay, 32P transfer from [γ-32P]ATP to histone III-S; type: biochemical, rat; settings: for inhibition at 10 μM: 10 μM inhibitor; for IC50: histone III-S substrate, 15 min, three trials per concentration
Text: In practicing various aspects of the present invention, compounds in accordance with the invention can be tested for a biological activity of interest using any assay protocol that is predictive of activity in vivo. For example, a variety of convenient assay protocols are available that are generally predictive of PKC inhibitory activity in vivo. In one approach, PKC inhibitory activity can be assessed using the PKC assay described in Example 9 (also described by Toullec et al. (1991) J. Biol. Chem. 266:15771). In that assay, the PKC was derived, as a mixture of isozymes, from rat brains, and activity was determined by incorporation of ^32P radiolabeled phosphate, derived from [γ-^32P]-ATP, onto a PKC substrate. Another assay for assessing PKC inhibitory activity is described in Example 10; see also U.S. Patent Application Publication No. 2002/0137789 A1 to Wender et al. In this assay, Ki values are determined for potential inhibitors based on competition with radiolabeled phorbol 12,13-dibutyrate for binding to a mixture of PKC isozymes.
Materials used: Phosphatidyl serine and 1,2 sn-dioleylglycerol were obtained from Serdary Research Laboratories. Protein kinase C, as a mixture of isozymes, was obtained in isolated and purified form from Prof. Daria Mochley-Rosen and Tamar Lion (Stanford University, Department of Molecular Pharmacology).
PKC activity was assayed by measuring ^32Pi transferred from [γ-^32P]ATP to histone III-S (Sigma). The reaction mixture (100 μL) included 20 mM Tris-HCl (pH 7.5) (30 μL), 10 mM CaCl2 in 20 mM Tris-HCl (10 μL), a sonicated suspension of 2.4 mg/mL phosphatidylserine and 80 μg/mL 1,2-diacylglycerol in 20 mM Tris-HCl (10 μL), a PKC preparation of 4.5 mg/mL total PKC with 5–9 U activity/mL relative to histone III-S (10 μL), a solution of 0.35 mg/mL histone III-S (Sigma) in 20 mM Tris-HCl (10 μL), and a solution of the inhibitor at various concentrations in 20 mM Tris-HCl containing <1% DMSO (10 μL). The reaction was started by the addition of a solution containing 27 μL of 3.75 mM ATP (non-radiolabeled), 100 μL 1.0 M MgCl2, and 1.3 μL of […] [γ-^32P]ATP, and 872 μL of 20 mM Tris-HCl (pH 7.5) (20 μL). After 15 min, the reaction was stopped by the addition of 30 μL of 200 mM EDTA and 200 mM ATP (non-radiolabeled). The reaction mixture was adsorbed onto phosphocellulose paper squares (Whatman P81), and allowed to dry for 5 min. The phosphocellulose paper squares were then washed with EtOH (3×1 min). The total protein phosphorylation was quantitated by scintillation counting. Counts per minute were averaged among three trials at each concentration.

[2] = tested on: five of the PKC isoforms; settings: cited from earlier work
[3] = tested on: PKC; settings: Tamaoki et al. (1986); cited from earlier work

## CN1C(=O)c2c3c(c4[nH]c5ccccc5c4c2C1=O)CCC(=O)CC3 [Compound 10]
other
  melting point: 309 to 310 °C (dec.)
[1]
  inhibition at 10 μM: ^A36% inhibition at 10 μM
  IC50: > 10 µM

## O=C1CCc2c3c(c4c([nH]c5ccccc54)c2CC1)C(=O)NC3=O [Compound 11]
[1]
  IC50: 3.6 µM

## O=C1NC(=O)c2c1c1c(c3[nH]c4ccccc4c23)CCC(O)CC1 (stereo not drawn) [Compound 12]
[1]
  IC50: 4.5 µM

## CN1C(=O)c2c3c(c4c(c2C1=O)c1ccccc1n4CCCNC(=O)OC(C)(C)C)CCC(O)CC3 (stereo not drawn) [Compound 14]
[1]
  inhibition at 10 μM: ^B40% inhibition at 10 μM
  IC50: > 10 µM

## CN[C@H]1CC2(C)OC(C)([C@H]1OC)n1c3ccccc3c3c4c(c5c6ccccc6n2c5c31)C(=O)NC4 (stereo partly drawn) [Staurosporin]
[2]
  IC50: < 0.01 µM
[3]
  IC50: 0.0027 µM
